Measured values as given in paper PMC5882139, “Functional examination of novel kisspeptin phosphinic peptides” (PLoS ONE, 2018).
Ends that are not written are not given here.

Key:
MMP-2 = MMP-2 activity, MMP colorimetric drug discovery kit; type: biochemical; details: 1.3 μM, 37°C 1 hour, 412 nm; three independent experiments
Procedure: (§1) The activity of MMPs was measured using MMP colorimetric drug discovery kits in a 96-well microtiter plate according to the manufacturer’s instructions. Different concentrations of the phosphinic peptides or 1.3 μM N-Isobutyl-N-(4-methoxyphenylsulfonyl)glycyl hydroxamic acid (NNGH), a positive inhibitor for MMPs, were, respectively, added to the assay mixtures containing MMP enzyme (MMP-2 or MMP-9; 9 mU/μL). The plates were then incubated at 37°C for 1 hour for enzyme reaction. After that, a final concentration of 100 μM colorimetric substrate (Ac-PLG-[2-mercapto-4-methyl-pentanoyl]-LGOC2H5) was added to each well and the plates were then read at 412 nm every minute for at least 20 minutes using PHERAStar FS microplate reader. The full enzyme activity (control) was measured without addition of any inhibitor or tested peptides. The reaction velocity (V) was determined by calculating the slope of the fitted line to the linear portion of the data collected. The slope of blank (without addition of MMP enzyme) was subtracted from all samples and the remaining activity of the enzyme was calculated using following formula.
(§2) %Enzymeactivity=V(inhibitor)/V(control)*100
(§3) Fig 7 Effect of KP phosphinic peptides on MMP-2 (A) or MMP-9 (B) enzyme activity. […] The maximum activity (control) was measured in the absence of inhibitors. […]

MMP-9 = MMP-9 activity, MMP colorimetric drug discovery kit; type: biochemical; details: 1.3 μM, 37°C 1 hour, 412 nm; three independent experiments
Procedure: as §1, §2, §3

cancer cell metastasis = details: ref [17]; cited from earlier work
Description: KPs inhibit metastasis in a variety of cancers, including melanoma, breast, endometrial, gastric ovarian cancers, and others. Therefore, KP analogues may act as inhibitors of cancer metastasis which is the major cause of cancer death.

Molecule: COc1ccc(S(=O)(=O)N(CC(=O)NO)CC(C)C)cc1 [NNGH, N-Isobutyl-N-(4-methoxyphenylsulfonyl)glycyl hydroxamic acid]
- inhibition of MMP-2 activity by positive control (MMP-2): almost completely inhibited
- inhibition of MMP-9 activity by positive control (MMP-9): almost completely inhibited

Molecule: KP-54: endogenous 54-amino acid peptide ligand of kisspeptin receptor (GTSLSPPPESSGSPQQPGLSAPHSRQIPAPQGAVLVQREKDLPNYNWNSFGLRF; ends and bridges not checked; UniProt Q15726 68-121, looked up)
- inhibition of cancer cell metastasis (cancer cell metastasis): inhibit cancer cell metastasis
